Columns and labels:
Conditions in all cases: compound 10.0 µM
AURKA (human) = AURKA (human) (UniProt O14965)
BRSK1 (human) = BRSK1 (human) (UniProt Q8TDC3)
CDK9 (human) = CDK9 (human) (UniProt P50750)
CSNK2A1 (human) = CSNK2A1 (human) (UniProt P68400)
DAPK3 (human) = DAPK3 (human) (UniProt O43293)
EPHA6 (human) = EPHA6 (human) (UniProt Q9UF33)
EPHA7 (human) = EPHA7 (human) (UniProt Q15375)
EPHB2 (human) = EPHB2 (human) (UniProt P29323)
ERN1 (human) = ERN1 (human) (UniProt O75460)
FES (human) = FES (human) (UniProt P07332)
[1] = system: FGFR3 (human), P22607 [G697C]
FGFR4 (human) = FGFR4 (human) (UniProt P22455)
[2] = system: FLT3 (human), P36888 [K663Q]
[3] = system: FLT3 (human), P36888 [N841I]
HCK (human) = HCK (human) (UniProt P08631)
INSR (human) = INSR (human) (UniProt P06213)
[4] = system: KIT (human), P10721 [V559D]
LIMK1 (human) = LIMK1 (human) (UniProt P53667)
MAP3K1 (human) = MAP3K1 (human) (UniProt Q13233)
MAP3K2 (human) = MAP3K2 (human) (UniProt Q9Y2U5)
MAP3K3 (human) = MAP3K3 (human) (UniProt Q99759)
MAP3K5 (human) = MAP3K5 (human) (UniProt Q99683)
MAP3K7 (human) = MAP3K7 (human) (UniProt O43318)
MAPK6 (human) = MAPK6 (human) (UniProt Q16659)
MAPK9 (human) = MAPK9 (human) (UniProt P45984)
MAPKAPK5 (human) = MAPKAPK5 (human) (UniProt Q8IW41)
MYO3B (human) = MYO3B (human) (UniProt Q8WXR4)
NTRK1 (human) = NTRK1 (human) (UniProt P04629)
NTRK2 (human) = NTRK2 (human) (UniProt Q16620)
PAK4 (human) = PAK4 (human) (UniProt O96013)
PKN2 (human) = PKN2 (human) (UniProt Q16513)
PLK3 (human) = PLK3 (human) (UniProt Q9H4B4)
PRKG1 (human) = PRKG1 (human) (UniProt Q13976)
RIOK2 (human) = RIOK2 (human) (UniProt Q9BVS4)
ROCK1 (human) = ROCK1 (human) (UniProt Q13464)
SIK1 (human) = SIK1 (human) (UniProt P57059)
STK11 (human) = STK11 (human) (UniProt Q15831)
STK32B (human) = STK32B (human) (UniProt Q9NY57)
TBK1 (human) = TBK1 (human) (UniProt Q9UHD2)
TEK (human) = TEK (human) (UniProt Q02763)
ULK2 (human) = ULK2 (human) (UniProt Q8IYT8)
YSK4 (human) = YSK4 (human) (UniProt Q56UN5)

Chain of TBK1 (human) (Q9UHD2 whole entry, looked up): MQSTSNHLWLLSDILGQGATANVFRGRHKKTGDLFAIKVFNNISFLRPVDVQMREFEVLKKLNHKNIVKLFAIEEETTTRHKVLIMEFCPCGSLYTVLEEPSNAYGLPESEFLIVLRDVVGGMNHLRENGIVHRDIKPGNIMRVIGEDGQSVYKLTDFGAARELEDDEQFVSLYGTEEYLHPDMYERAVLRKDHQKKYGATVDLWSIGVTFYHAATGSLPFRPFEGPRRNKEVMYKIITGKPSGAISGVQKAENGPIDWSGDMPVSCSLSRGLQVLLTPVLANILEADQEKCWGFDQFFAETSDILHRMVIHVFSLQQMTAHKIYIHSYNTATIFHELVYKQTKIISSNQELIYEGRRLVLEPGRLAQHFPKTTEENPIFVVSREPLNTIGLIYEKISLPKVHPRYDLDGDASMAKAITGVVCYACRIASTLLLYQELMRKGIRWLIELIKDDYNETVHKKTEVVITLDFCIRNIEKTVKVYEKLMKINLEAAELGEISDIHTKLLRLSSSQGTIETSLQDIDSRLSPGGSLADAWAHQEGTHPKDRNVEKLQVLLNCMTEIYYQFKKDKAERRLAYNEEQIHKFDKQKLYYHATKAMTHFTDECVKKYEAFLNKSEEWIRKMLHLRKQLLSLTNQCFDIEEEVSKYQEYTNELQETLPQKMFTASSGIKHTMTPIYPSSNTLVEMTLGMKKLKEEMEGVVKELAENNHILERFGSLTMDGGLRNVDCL
Chain of SIK1 (human) (P57059 whole entry, looked up): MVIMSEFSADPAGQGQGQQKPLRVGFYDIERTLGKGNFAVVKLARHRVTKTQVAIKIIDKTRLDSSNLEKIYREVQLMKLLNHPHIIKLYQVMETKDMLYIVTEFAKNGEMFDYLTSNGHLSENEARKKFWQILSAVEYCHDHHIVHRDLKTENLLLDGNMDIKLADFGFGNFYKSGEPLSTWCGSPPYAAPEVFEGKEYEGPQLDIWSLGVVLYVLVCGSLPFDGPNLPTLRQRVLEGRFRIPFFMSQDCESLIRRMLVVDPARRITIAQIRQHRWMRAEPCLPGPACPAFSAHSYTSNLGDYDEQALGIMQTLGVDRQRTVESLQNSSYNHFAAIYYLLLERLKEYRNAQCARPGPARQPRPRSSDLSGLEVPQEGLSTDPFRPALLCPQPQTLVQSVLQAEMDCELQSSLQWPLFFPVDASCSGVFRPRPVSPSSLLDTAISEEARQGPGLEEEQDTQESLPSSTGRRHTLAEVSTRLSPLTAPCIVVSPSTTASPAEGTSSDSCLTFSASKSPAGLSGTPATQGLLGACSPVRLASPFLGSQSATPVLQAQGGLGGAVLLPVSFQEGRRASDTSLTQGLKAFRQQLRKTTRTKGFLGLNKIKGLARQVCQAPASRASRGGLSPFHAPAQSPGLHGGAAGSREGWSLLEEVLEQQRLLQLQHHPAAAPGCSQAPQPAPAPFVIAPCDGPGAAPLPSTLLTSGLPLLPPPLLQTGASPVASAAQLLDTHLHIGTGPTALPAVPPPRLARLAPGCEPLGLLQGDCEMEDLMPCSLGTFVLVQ
Chain of EPHA6 (human) (Q9UF33 whole entry, looked up): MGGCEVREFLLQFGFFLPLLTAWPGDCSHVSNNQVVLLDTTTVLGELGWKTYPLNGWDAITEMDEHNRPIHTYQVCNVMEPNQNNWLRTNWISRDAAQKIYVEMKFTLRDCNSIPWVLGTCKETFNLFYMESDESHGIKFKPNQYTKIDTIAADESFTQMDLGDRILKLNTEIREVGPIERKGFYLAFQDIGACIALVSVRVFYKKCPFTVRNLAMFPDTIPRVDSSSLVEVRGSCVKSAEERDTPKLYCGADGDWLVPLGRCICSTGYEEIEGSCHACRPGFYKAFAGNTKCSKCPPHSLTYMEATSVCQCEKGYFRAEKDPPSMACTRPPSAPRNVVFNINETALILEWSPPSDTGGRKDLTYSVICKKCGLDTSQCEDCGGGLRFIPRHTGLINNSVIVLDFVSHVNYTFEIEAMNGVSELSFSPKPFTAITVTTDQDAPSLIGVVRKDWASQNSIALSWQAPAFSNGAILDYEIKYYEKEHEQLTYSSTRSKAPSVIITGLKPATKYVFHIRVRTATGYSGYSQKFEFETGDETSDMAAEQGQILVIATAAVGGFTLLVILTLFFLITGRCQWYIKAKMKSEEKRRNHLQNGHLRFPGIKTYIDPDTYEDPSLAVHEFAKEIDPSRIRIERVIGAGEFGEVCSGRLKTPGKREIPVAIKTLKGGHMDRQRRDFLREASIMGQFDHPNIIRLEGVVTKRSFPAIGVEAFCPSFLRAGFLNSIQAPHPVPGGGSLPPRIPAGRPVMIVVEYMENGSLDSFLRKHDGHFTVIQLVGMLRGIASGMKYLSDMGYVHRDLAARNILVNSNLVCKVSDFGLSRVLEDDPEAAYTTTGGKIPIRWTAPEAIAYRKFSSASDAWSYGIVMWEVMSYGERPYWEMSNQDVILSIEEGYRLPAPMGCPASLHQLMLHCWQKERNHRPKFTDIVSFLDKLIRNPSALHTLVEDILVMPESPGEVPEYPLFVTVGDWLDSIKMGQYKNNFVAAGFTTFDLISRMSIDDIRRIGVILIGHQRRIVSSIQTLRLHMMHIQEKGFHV
Chain of MAP3K5 (human) (Q99683 whole entry, looked up): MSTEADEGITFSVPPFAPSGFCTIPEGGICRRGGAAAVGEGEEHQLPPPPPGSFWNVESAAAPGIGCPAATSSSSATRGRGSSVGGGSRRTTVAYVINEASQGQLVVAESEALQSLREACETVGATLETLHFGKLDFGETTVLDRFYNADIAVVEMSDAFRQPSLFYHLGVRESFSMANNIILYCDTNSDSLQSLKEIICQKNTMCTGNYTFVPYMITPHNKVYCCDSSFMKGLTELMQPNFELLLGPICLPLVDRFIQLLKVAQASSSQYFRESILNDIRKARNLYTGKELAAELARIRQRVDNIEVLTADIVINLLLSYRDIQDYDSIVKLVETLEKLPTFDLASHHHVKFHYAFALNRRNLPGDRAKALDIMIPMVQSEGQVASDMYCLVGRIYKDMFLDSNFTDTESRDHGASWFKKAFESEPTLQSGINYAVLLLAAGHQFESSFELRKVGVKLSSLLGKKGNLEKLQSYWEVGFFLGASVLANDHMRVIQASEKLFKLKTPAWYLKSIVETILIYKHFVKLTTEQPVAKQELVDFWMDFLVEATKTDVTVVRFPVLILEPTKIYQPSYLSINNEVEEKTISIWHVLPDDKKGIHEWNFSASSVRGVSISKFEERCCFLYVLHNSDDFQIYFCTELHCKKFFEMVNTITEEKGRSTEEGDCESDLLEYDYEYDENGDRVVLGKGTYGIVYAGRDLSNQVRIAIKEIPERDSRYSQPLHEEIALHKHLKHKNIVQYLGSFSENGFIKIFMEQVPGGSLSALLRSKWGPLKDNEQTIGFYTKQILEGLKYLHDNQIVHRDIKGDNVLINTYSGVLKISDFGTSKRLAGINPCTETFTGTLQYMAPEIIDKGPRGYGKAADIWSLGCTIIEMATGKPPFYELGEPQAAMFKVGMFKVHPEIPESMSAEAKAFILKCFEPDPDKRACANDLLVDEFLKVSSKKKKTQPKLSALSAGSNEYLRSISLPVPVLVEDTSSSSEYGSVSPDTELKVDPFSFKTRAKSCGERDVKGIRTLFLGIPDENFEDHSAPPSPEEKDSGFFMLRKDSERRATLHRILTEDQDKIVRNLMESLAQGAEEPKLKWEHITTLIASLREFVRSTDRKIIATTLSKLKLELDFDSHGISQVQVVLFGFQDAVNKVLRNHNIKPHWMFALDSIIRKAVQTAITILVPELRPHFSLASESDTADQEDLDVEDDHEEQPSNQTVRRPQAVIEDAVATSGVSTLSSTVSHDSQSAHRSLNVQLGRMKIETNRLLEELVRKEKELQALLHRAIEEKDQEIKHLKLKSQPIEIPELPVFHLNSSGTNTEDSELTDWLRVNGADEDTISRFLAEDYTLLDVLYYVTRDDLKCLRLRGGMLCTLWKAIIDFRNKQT
Chain of MAP3K3 (human) (Q99759 whole entry, looked up): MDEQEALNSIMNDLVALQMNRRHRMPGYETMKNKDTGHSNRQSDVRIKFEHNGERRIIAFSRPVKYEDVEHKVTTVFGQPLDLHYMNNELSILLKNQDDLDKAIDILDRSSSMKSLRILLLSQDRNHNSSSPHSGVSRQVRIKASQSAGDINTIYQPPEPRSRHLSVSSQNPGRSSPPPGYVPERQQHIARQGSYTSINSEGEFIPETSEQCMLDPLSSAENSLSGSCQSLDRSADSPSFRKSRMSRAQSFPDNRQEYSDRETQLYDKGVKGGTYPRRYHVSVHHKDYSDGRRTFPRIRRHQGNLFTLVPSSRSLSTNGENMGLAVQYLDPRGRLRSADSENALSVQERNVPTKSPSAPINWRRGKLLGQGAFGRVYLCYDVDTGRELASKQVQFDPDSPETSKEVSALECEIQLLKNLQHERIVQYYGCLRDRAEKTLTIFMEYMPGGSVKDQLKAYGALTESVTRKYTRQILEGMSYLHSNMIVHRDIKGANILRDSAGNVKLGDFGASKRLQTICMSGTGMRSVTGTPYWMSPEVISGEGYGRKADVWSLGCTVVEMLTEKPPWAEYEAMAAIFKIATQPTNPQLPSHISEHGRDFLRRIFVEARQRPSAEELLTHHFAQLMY
Chain of MAPKAPK5 (human) (Q8IW41 whole entry, looked up): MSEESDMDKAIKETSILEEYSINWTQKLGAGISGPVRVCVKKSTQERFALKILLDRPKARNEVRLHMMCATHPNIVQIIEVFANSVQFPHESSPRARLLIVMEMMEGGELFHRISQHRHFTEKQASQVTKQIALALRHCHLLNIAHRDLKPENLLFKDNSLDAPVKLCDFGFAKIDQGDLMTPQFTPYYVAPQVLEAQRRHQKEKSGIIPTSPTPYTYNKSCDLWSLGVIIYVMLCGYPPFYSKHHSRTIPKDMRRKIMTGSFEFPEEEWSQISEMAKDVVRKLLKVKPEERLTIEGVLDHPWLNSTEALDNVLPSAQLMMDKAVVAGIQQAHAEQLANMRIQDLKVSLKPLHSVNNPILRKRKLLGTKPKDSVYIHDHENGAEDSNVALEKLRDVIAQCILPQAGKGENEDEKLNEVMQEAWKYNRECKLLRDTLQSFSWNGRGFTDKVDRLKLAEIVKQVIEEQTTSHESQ

Structure (SMILES): CNC(=O)c1cc(Oc2ccc(NC(=O)Nc3ccc(Cl)c(C(F)(F)F)c3)cc2)ccn1
- per cent of control (AURKA (human)): 83%
- per cent of control (BRSK1 (human)): 100%
- per cent of control (CDK9 (human)): 62%
- per cent of control (CSNK2A1 (human)): 100%
- per cent of control (DAPK3 (human)): 94%
- per cent of control (EPHA6 (human)): 1.6%
- per cent of control (EPHA7 (human)): 7.6%
- per cent of control (EPHB2 (human)): 12%
- per cent of control (ERN1 (human)): 92%
- per cent of control (FES (human)): 72%
- per cent of control [1]: 25%
- per cent of control (FGFR4 (human)): 43%
- per cent of control [2]: 0.25%
- per cent of control [3]: 0%
- per cent of control (HCK (human)): 14%
- per cent of control (INSR (human)): 100%
- per cent of control [4]: 0%
- per cent of control (LIMK1 (human)): 7.6%
- per cent of control (MAP3K1 (human)): 89%
- per cent of control (MAP3K2 (human)): 100%
- per cent of control (MAP3K3 (human)): 97%
- per cent of control (MAP3K5 (human)): 100%
- per cent of control (MAP3K7 (human)): 2.6%
- per cent of control (MAPK6 (human)): 94%
- per cent of control (MAPK9 (human)): 21%
- per cent of control (MAPKAPK5 (human)): 100%
- per cent of control (MYO3B (human)): 38%
- per cent of control (NTRK1 (human)): 22%
- per cent of control (NTRK2 (human)): 6.1%
- per cent of control (PAK4 (human)): 100%
- per cent of control (PKN2 (human)): 100%
- per cent of control (PLK3 (human)): 100%
- per cent of control (PRKG1 (human)): 100%
- per cent of control (RIOK2 (human)): 48%
- per cent of control (ROCK1 (human)): 84%
- per cent of control (SIK1 (human)): 79%
- per cent of control (STK11 (human)): 98%
- per cent of control (STK32B (human)): 100%
- per cent of control (TBK1 (human)): 100%
- per cent of control (TEK (human)): 2.8%
- per cent of control (ULK2 (human)): 94%
- per cent of control (YSK4 (human)): 0%

Structure (SMILES): CNC(=O)c1cc(Oc2ccc(NC(=O)Nc3ccc(Cl)c(C(F)(F)F)c3)cc2)cc[n+]1[O-]
- per cent of control (AURKA (human)): 26%
- per cent of control (BRSK1 (human)): 76%
- per cent of control (CDK9 (human)): 73%
- per cent of control (CSNK2A1 (human)): 94%
- per cent of control (DAPK3 (human)): 100%
- per cent of control (EPHA6 (human)): 6.6%
- per cent of control (EPHA7 (human)): 33%
- per cent of control (EPHB2 (human)): 19%
- per cent of control (ERN1 (human)): 66%
- per cent of control (FES (human)): 98%
- per cent of control [1]: 50%
- per cent of control (FGFR4 (human)): 39%
- per cent of control [2]: 0.2%
- per cent of control [3]: 0%
- per cent of control (HCK (human)): 8.8%
- per cent of control (INSR (human)): 83%
- per cent of control [4]: 0%
- per cent of control (LIMK1 (human)): 8.5%
- per cent of control (MAP3K1 (human)): 100%
- per cent of control (MAP3K2 (human)): 100%
- per cent of control (MAP3K3 (human)): 96%
- per cent of control (MAP3K5 (human)): 89%
- per cent of control (MAP3K7 (human)): 2.9%
- per cent of control (MAPK6 (human)): 100%
- per cent of control (MAPK9 (human)): 0.05%
- per cent of control (MAPKAPK5 (human)): 100%
- per cent of control (MYO3B (human)): 17%
- per cent of control (NTRK1 (human)): 4%
- per cent of control (NTRK2 (human)): 2.4%
- per cent of control (PAK4 (human)): 100%
- per cent of control (PKN2 (human)): 91%
- per cent of control (PLK3 (human)): 100%
- per cent of control (PRKG1 (human)): 98%
- per cent of control (RIOK2 (human)): 42%
- per cent of control (ROCK1 (human)): 23%
- per cent of control (SIK1 (human)): 66%
- per cent of control (STK11 (human)): 100%
- per cent of control (STK32B (human)): 100%
- per cent of control (TBK1 (human)): 100%
- per cent of control (TEK (human)): 3.5%
- per cent of control (ULK2 (human)): 75%
- per cent of control (YSK4 (human)): 0.1%
